Data taken from ChEMBL document CHEMBL1821699, “1,5-Disubstituted indole derivatives as selective human neuronal nitric oxide synthase inhibitors” (Bioorg Med Chem Lett, 2011).

What follows are compounds tested against T1, Nitric oxide synthase 3 (Homo sapiens, UniProt P29474) (assay: Inhibition of human recombinant eNOS expressed in Sf9 cells assessed as conversion of [3H]-L-arginine to [3H]-L-citrulline by radiometric method).
T1 sequence (P29474 whole entry): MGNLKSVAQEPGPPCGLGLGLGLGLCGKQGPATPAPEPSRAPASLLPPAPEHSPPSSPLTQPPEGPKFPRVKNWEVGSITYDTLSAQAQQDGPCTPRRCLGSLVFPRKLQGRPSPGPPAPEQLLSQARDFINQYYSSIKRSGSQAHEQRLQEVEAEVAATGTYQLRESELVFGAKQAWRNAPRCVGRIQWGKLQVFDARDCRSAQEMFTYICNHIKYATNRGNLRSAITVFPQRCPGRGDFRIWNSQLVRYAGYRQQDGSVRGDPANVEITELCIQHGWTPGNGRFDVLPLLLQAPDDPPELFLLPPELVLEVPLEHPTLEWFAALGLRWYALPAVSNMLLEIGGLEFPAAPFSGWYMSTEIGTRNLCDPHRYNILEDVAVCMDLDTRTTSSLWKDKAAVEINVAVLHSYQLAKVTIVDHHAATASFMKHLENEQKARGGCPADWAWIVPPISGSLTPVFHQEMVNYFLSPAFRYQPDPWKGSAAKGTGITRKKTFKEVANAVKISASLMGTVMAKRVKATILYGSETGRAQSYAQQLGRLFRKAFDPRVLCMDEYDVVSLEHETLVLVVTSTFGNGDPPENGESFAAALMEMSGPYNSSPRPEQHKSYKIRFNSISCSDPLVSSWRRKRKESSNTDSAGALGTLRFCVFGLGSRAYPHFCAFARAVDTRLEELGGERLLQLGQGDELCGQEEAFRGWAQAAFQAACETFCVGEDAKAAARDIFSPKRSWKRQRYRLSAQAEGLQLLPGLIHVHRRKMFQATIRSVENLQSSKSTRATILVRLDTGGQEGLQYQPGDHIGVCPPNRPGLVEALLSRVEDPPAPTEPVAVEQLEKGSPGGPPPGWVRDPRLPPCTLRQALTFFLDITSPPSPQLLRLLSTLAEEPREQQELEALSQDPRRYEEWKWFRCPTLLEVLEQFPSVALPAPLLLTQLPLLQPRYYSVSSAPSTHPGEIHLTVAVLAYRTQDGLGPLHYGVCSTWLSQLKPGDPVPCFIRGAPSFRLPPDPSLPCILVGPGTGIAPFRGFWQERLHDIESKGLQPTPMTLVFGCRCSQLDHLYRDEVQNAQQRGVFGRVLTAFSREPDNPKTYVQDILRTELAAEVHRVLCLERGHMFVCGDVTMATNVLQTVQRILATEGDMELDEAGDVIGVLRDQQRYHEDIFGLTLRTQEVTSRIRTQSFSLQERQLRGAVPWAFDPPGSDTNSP

**Q.** For `CN1CCC[C@H]1CCn1ccc2cc(NC(=N)c3cccs3)ccc21`, which IC50 is on record?
**A.** 1.92 µM

**Q.** For `CN1CCC[C@@H]1CCn1ccc2cc(NC(=N)c3cccs3)ccc21`, which IC50 is on record?
**A.** 3.37 µM

The compounds below were run against Nitric oxide synthase, inducible (Homo sapiens, UniProt P35228) (assay: Inhibition of human recombinant iNOS expressed in Sf9 cells assessed as conversion of [3H]-L-arginine to [3H]-L-citrulline by radiometric method).
Sequence of Nitric oxide synthase, inducible (P35228 whole entry): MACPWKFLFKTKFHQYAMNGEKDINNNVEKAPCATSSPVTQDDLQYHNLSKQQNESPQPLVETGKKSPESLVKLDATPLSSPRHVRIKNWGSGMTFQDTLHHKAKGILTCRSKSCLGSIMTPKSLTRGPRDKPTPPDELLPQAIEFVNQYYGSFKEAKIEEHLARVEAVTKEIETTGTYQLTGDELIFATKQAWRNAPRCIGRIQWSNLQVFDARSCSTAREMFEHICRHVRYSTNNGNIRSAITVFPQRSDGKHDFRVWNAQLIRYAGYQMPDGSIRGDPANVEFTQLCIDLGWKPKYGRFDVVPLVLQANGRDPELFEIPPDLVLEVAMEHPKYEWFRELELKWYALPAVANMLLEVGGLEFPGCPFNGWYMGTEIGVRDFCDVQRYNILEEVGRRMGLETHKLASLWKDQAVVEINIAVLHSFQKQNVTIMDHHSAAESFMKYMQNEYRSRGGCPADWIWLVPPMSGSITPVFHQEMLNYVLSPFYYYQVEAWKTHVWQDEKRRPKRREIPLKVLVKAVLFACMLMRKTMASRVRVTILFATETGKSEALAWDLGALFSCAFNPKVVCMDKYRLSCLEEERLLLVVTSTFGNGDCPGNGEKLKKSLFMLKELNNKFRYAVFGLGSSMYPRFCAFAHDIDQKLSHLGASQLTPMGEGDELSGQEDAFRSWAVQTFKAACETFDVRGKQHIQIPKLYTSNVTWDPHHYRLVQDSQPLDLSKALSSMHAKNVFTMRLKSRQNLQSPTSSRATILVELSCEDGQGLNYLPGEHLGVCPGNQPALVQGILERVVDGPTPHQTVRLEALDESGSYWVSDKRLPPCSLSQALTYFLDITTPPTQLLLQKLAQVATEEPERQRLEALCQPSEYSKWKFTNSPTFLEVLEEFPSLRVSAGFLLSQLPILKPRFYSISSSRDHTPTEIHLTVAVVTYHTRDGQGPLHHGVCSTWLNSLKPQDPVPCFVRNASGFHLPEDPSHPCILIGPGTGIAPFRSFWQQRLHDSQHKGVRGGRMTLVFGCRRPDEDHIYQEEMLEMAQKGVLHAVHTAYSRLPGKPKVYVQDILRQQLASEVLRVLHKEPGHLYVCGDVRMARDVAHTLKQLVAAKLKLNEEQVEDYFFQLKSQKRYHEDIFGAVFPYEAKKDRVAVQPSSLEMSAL

**Q.** With `N=C(Nc1ccc2c(ccn2CCCNC23CC4CC(CC(C4)C2)C3)c1)c1cccs1` as the compound, how does the IC50 read?
**A.** 18 µM

**Q.** With `N=C(Nc1ccc2c(ccn2CCN2CCCCC2)c1)c1cccs1` as the compound, how does the IC50 read?
**A.** 4.61 µM

**Q.** Which IC50 does the source give for `N=C(Nc1ccc2c(ccn2CCCNC2CC2)c1)c1cccs1` here?
**A.** 34 µM

**Q.** Which IC50 does the source give for `CN(C)CCn1ccc2cc(NC(=N)c3cccs3)ccc21` here?
**A.** 15.7 µM

**Q.** With `CN1CCC[C@H]1CCn1ccc2cc(NC(=N)c3cccs3)ccc21` as the compound, how does the IC50 read?
**A.** 17 µM

**Q.** With `N=C(Nc1ccc2c(ccn2CCCN2CCOCC2)c1)c1cccs1` as the compound, how does the IC50 read?
**A.** 41.6 µM

**Q.** For `CN1CCCCC1CCn1ccc2cc(NC(=N)c3cccs3)ccc21` (stereo not drawn), which IC50 is on record?
**A.** 9.8 µM

**Q.** Which IC50 does the source give for `CN1CCC[C@@H]1CCn1ccc2cc(NC(=N)c3cccs3)ccc21` here?
**A.** 22 µM

**Q.** Which IC50 does the source give for `CN1CCCC1CCn1ccc2cc(NC(=N)c3cccs3)ccc21` (racemic) here?
**A.** 14 µM

**Q.** For `CN1CCCC(n2ccc3cc(NC(=N)c4ccco4)ccc32)CC1` (single isomer, unassigned; (-)), which IC50 is on record?
**A.** 20 µM

**Q.** For `CN1CCCC(n2ccc3cc(NC(=N)c4ccco4)ccc32)CC1` (stereo in doubt; (+)-15), which IC50 is on record?
**A.** 73 µM
